Marks after values point to notes of the source that are not given here.
Key:
Format in all cases: cell-based, human
U87 MG/PER2-dLuc cells [1] = test: cells; details: 72 h treatment; for IC50: read-out: IC50 (MTT, Table 1)
Method: U87 MG/PER2-dLuc cells were subjected to the 3-(4, 5-dimethylthiazol-2-yl)-2, 5-diphenyl tetrazolium bromide (MTT) (M2128; Sigma-Aldrich) assay. […] Briefly, U87 MG/PER2-dLuc cells were seeded in 96-well plates at a density of 10^5 cells/mL, incubated for 48 h, and treated with relevant chemicals at various concentrations for 72 h. Subsequently, the media with chemicals were decanted and 20μl of MTT reagent solution (5 mg/ml) with 80μl of the media was added to all wells the plates and were incubated for 2 h until the formation of formazan crystals. The reagent solution was decanted, and 100μl of DMSO (D8418; Sigma-Aldrich) was added. Absorbance was measured at 570 nm using a spectrophotometer (Molecular Devices). The values of triplicate same-treatment wells were averaged.

U87 MG/PER2-dLuc cells [2] = test: in vitro cellular bioluminescence (PER2-dLuc circadian reporter) assay; details: for concentration that disrupted the cellular circadian rhythm / concentration with no disruptive effect on cellular circadian rhythm: Fig. 3; for LOAEL Circadian disruption: U87 MG/PER2-dLuc cells, bioluminescence monitored 5 days; for effect on cellular circadian rhythm: at disrupting concentration: MPP + ≥ 30 µM, DDT 10 µM, PMX ≥ 30 µM, CPX ≥ 40 µM, CPF 1.5 µM
Method: U-87 MG (ATCC® HTB-14™) is a well-recognized human glioblastoma cell line widely used in the field of neuroscience. U87 MG cells have a regular and strong cellular circadian rhythm after transfection with a circadian gene (i.e., BMAL1) reporter vector (Jung et al. [2013]; Slat et al. [2017]). As described in our previous report (Fang et al. [2015], [2017]), U87 MG cells were transfected with a circadian reporter vector pGL [PER2P (Luc2P/Neo)] expressing destabilized firefly luciferase driven by the human PER2 promoter using FuGene HD™ transfection reagent (LightSwitch Genomics), and stably transfected cells were selected and cultured with 1000 μg/mL G418 (Invitrogen). The stably transfected cells were used to examine the cellular circadian rhythm using an in vitro cellular bioluminescence assay. U87 MG/PER2P-dLuc cells were cultured in Eagle’s minimum essential medium (EMEM) (11430030; Gibco) supplemented with 5% fetal bovine serum (FBS) (26140079; Gibco) and 1% penicillin/streptomycin (15140122; Gibco) at 37 °C in an atmosphere of 95% humidity and 5% CO2.
(§1) Briefly, cultured U87 MG/PER2 -dLuc cells were seeded in 35-mm dishes at 3 × 10^5 cells/dish and incubated until 70–80% confluency was reached. The cells were FBS-starved for three days at 70% confluency and then synchronized with 50% horse serum (16050122; Gibco) (Balsalobre et al. [1998]). After decanting and washing, recording medium (EMEM with 20% of growing medium containing 5% FBS, 6.5 mM sodium bicarbonate, 10 mM HEPES buffer [pH 7.2], 0.1 mM luciferin [E1602; Promega], and 50 U/mL penicillin and 50 µg/mL streptomycin) was added. Subsequently, the cells were treated with each compound. The 35-mm dishes were sealed with a sterile glass cover slide using silicon grease and subjected to continuous monitoring with a LumiCycle 32™ (Actimetrics) for 5 days. The analytical method was optimized according to the instruction manual of the LumiCycle Analysis Software (Actimetrics). Using this software, data were detrended (running average), and best fits to a sine wave were estimated using the Levenberg–Marquardt algorithm for period, phase, amplitude, and damping rate measurements, as previously reported (Chen et al. [2012]; Fang et al. [2015], [2017]).

U87 MG/PER2-dLuc cells [3] = test: multiparametric high-content screening (HCS) assay; details: for LOAEL MMP (mitochondrial membrane potential): TMRM; for LOAEL CA (calcium ion): Fluo-4 AM; for lowest concentration with decrease in MMP: 24 h of treatment
Method: A multiparametric analysis of compound toxicity at the level of individual cells was conducted using the HCS method established by Tolosa et al. ([2012]) to assess the liver toxicity of chemicals and drugs. Briefly, U87 MG/PER2-dLuc cells were seeded in 96-well plates specific for HCS at a density of 10^4 cells/well. […] Following these treatments, cells were treated with a mixture of Hoechst 33342 (Hoechst) (B2261; Sigma-Alrich) at 1.5 µg/mL to assess the nuclear size (NC), 75 ng/mL tetramethyl rhodamine methyl ester (TMRM) (T-668; Molecular Probes) as a mitochondrial membrane potential (MMP) sensor, 0.24 µM fluo-4 acetoxymethyl ester (Fluo-4 AM) (F14217; Molecular Probes) to detect intracellular calcium ions (Ca^2+), and 1.5 µg/mL of (E,E)-3,5-bis-(4-phenyl-1,3-butadienyl)-4,4-difluoro-4-bora-3a,4a-diaza-s-indacene (BODIPY 665/676) (b-3932; Molecular Probes) to evaluate lipid peroxidation. After incubation for 1 h, the cells were imaged using an IN Cell Analyzer 6000 (GE Healthcare Life Sciences) and analyzed using IN Cell Miner HCM. The data were analyzed with IN Cell Analyzer 6000 Analysis Software. Nuclear morphological alterations were assessed based on the Hoechst staining. The nucleus was defined as the main object detected using an edge detection algorithm. To separate individual cells, segmentation was applied. All measurements were restricted to live cells. Lipid peroxidation was detected based on BODIPY fluorescence intensity in the cytoplasm. The cellular MMP was defined as the TMRM fluorescence intensity in punctate cytosolic regions surrounding the nucleus. Fluo-4 intensity was used to measure changes in the cytosolic-free Ca^2+ concentration. An intensity algorithm with a fixed threshold was used to measure TMRM, Fluo-4, and BODIPY fluorescence. Each measurement was performed in individual cells. The values of triplicate same-treatment wells were averaged and normalized to the average value of vehicle control (0.1% DMSO-treated or naïve cells).
The values of triplicate same-treatment wells were averaged and normalized to the average value of the negative control group, and differences in parameters between concentrations were analyzed using one-way ANOVA followed by Duncan’s tests. A p-value < 0.05 was considered significant.

U87 MG/PER2-dLuc cells [4] = test: cellular circadian rhythm assay with neurotoxicants in the presence of antioxidants; details: for restoration of circadian rhythm disrupted by CPF: 1.5 µM CPF, 20 µM NAC, 12.5 µM (or 25 µM) MSC; for effect on circadian rhythm disrupted by MHg: 2.0 µM MHg, co-treatment with NAC and MSC; for restoration of cellular rhythm disrupted by DDT: 10 µM DDT, co-treatment with NAC (10 or 20 µM) or MSC (12.5 or 25 µM); for restoration of MPP + -disrupted rhythmicity: MPP + at LOAEL, restored rhythm not similar to that of control cells
Method: as §1
The cellular circadian rhythm was recorded as described above.

Compound | IC15 (MTT, Table 1) (U87 MG/PER2-dLuc cells [1]) | IC50 (U87 MG/PER2-dLuc cells [1]) | concentration that disrupted the cellular circadian rhythm (U87 MG/PER2-dLuc cells [2]) | concentration with no disruptive effect on cellular circadian rhythm (U87 MG/PER2-dLuc cells [2]) | LOAEL Circadian disruption (U87 MG/PER2-dLuc cells [2]) | effect on cellular circadian rhythm (U87 MG/PER2-dLuc cells [2]) | LOAEL MMP (mitochondrial membrane potential) (U87 MG/PER2-dLuc cells [3]; 24-h treatment) | LOAEL CA (calcium ion) (U87 MG/PER2-dLuc cells [3]; 72-h treatment) | lowest concentration with decrease in MMP (U87 MG/PER2-dLuc cells [3]) | concentration that increased intracellular Ca2+ levels (U87 MG/PER2-dLuc cells [3]; 24-h timepoint) | LOAEL CA (calcium ion) (U87 MG/PER2-dLuc cells [3]; 24-h treatment) | concentration that increased intracellular Ca2+ levels (U87 MG/PER2-dLuc cells [3]; 72-h timepoint) | LOAEL LP (lipid peroxidation) (U87 MG/PER2-dLuc cells [3]; 72-h treatment, BODIPY 665/676) | LOAEL NC (nuclear size) (U87 MG/PER2-dLuc cells [3]; 72-h treatment, Hoechst 33342) | concentrations with increased lipid peroxidation (U87 MG/PER2-dLuc cells [3]; 72 h of treatment) | concentrations that changed nuclear size (U87 MG/PER2-dLuc cells [3]; 72 h of treatment, MHg biphasic changes, MPP + reduction) | restoration of circadian rhythm disrupted by CPF (U87 MG/PER2-dLuc cells [4]) | effect on circadian rhythm disrupted by MHg (U87 MG/PER2-dLuc cells [4]) | restoration of cellular rhythm disrupted by DDT (U87 MG/PER2-dLuc cells [4]) | restoration of MPP + -disrupted rhythmicity (U87 MG/PER2-dLuc cells [4])
polymyxin B [PMX] | 49 µM | 51 µM | ≥ 30 µM | 15 µM | 30 µM | advanced phase and decreased amplitude | 3.91* µM | 3.91** µM | 3.91 µM | – | – | – | – | – | – | – | – | – | – | –
C[n+]1ccc(-c2ccccc2)cc1 [MPP +, 1-methyl-4-phenylpyridinium] | 68.4 µM | 93 µM | ≥ 30 µM | 10 µM | 30 µM | advanced phase and decreased amplitude | 40* µM | 0.63 µM | 40 µM | 40 µM | 40 µM | 0.63 µM | 160 µM | 80 µM | > 160 µM | 80 to 120 µM | – | – | – | –
CC(=O)N[C@@H](CS)C(=O)O [NAC, N-acetyl-L-cysteine] | – | – | – | – | – | – | – | – | – | – | – | – | – | – | – | – | restored the circadian rhythm | reduced the first high-altitude peak | restored the cellular rhythm | restore the cellular circadian rhythm to a certain extent
C[Se]C[C@H](N)C(=O)O [MSC, methylselenocysteine] | – | – | – | – | – | – | – | – | – | – | – | – | – | – | – | – | restored the circadian rhythm | reduced the first high-altitude peak | restored the cellular rhythm | restore the cellular circadian rhythm to a certain extent

— publication PMC10965668, “Combined use of multiparametric high-content-screening and in vitro circadian reporter assays in neurotoxicity evaluation” (Archives of Toxicology, 2024)
